Data: ChEMBL document CHEMBL2331215, “Discovery of novel N-substituted oxindoles as selective m1 and m4 muscarinic acetylcholine receptors partial agonists” (ACS Med Chem Lett, 2013)
pEC50, pIC50: −log10 of the molar value. Activity calls are given as the source filed them. The calls are words filed in the database; no cut-off is given here.

Tests used:
[1] = test system: Cynomolgus monkey; assay: Cardiotoxicity in telemetered cynomolgus monkey assessed as prolongation of QTc interval at 1 to 3 mg/kg, sc measured after 1 to 4 hrs by telemetry method; format: toxicity, organism-based, Macaca fascicularis; design: route subcutaneous; conditions: in vivo
[2] = test system: Rattus norvegicus; assay: Potentiation of haloperidol-induced catalepsy in Sprague-Dawley rats at 30 mg/kg, sc administered 15 mins after haloperidol injection measured after 45 mins; format: ADME, organism-based; design: dose 30 mg/kg, route subcutaneous; conditions: in vivo, 0.75 h
[3] = biological target: T1, Muscarinic acetylcholine receptor M4 (Homo sapiens) (UniProt P08173); assay: Agonist activity at M4 receptor (unknown origin) at 3 uM by calcium mobilization assay; format: functional
T1 sequence (whole entry): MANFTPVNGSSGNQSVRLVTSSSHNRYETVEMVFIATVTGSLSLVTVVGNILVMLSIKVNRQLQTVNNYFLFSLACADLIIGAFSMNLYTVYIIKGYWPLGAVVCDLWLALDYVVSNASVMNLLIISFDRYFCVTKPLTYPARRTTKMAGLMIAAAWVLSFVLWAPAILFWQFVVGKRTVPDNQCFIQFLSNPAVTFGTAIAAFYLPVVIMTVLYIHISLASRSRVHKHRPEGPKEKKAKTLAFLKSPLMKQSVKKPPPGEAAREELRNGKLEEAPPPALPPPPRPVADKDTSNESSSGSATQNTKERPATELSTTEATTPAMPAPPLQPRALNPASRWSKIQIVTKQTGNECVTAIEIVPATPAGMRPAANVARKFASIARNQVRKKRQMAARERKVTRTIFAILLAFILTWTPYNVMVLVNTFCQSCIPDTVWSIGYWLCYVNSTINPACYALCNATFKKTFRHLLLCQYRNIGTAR

[4] = test system: Cynomolgus monkey; assay: Induction of drowsiness in sc dosed cynomolgus monkey; format: organism-based, Macaca fascicularis; conditions: in vivo
[5] = test system: Cynomolgus monkey; assay: Induction of miosis in sc dosed cynomolgus monkey; format: organism-based, Macaca fascicularis; conditions: in vivo
[6] = test system: Mus musculus; assay: Induction of salivation in ddY mouse at 10 to 30 mg/kg, sc measured for 30 mins after drug administration; format: organism-based; design: dose 10-30 mg/kg, route subcutaneous; conditions: in vivo, 0.5 h
[7] = biological target: Muscarinic acetylcholine receptor M3 (Homo sapiens) (UniProt P20309); assay: Agonist activity at M3 receptor (unknown origin) at 3 uM by calcium mobilization assay; format: functional
Chain of Muscarinic acetylcholine receptor M3 (Homo sapiens) (P20309 whole entry, looked up): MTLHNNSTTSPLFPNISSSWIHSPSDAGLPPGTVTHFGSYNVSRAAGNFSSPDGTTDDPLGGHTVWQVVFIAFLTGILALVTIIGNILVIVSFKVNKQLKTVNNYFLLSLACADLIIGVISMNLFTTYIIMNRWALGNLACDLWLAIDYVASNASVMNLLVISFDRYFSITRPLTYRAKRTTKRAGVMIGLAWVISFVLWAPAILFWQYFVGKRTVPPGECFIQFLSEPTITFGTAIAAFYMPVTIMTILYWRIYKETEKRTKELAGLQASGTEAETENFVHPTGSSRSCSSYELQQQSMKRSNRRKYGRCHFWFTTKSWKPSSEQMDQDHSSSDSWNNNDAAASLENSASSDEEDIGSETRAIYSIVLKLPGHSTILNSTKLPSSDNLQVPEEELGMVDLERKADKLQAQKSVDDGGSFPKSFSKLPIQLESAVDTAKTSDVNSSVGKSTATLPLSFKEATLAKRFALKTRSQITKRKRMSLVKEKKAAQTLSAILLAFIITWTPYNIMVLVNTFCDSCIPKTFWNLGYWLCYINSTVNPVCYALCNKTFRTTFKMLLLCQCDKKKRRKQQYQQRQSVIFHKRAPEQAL

[8] = test system: Cynomolgus monkey; assay: Cardiotoxicity in telemetered cynomolgus monkey assessed as increase in heart rate at 1 to 3 mg/kg, sc measured after 1 to 4 hrs by telemetry method; format: toxicity, organism-based, Macaca fascicularis; design: route subcutaneous; conditions: in vivo
[9] = test system: Cynomolgus monkey; assay: Cardiotoxicity in telemetered cynomolgus monkey assessed as prolongation of QRS duration at 1 to 3 mg/kg, sc measured after 1 to 4 hrs by telemetry method; format: toxicity, organism-based, Macaca fascicularis; design: route subcutaneous; conditions: in vivo
[10] = biological target: T2, Muscarinic acetylcholine receptor M1 (Homo sapiens) (UniProt P11229); assay: Agonist activity at M1 receptor (unknown origin) at 3 uM by calcium mobilization assay; format: functional
T2 sequence (whole entry): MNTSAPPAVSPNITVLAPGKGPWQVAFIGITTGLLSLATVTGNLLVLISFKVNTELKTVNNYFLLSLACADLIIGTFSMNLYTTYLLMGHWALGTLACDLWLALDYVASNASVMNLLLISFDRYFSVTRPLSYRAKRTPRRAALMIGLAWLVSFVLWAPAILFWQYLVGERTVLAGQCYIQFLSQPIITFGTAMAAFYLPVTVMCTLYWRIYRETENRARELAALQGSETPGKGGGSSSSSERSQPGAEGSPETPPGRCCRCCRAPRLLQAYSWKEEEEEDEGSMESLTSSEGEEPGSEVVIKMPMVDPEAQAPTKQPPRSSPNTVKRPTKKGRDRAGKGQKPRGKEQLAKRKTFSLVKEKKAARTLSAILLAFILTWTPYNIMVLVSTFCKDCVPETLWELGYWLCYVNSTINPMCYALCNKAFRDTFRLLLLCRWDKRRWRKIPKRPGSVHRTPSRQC

[11] = test system: Cynomolgus monkey; assay: Cardiotoxicity in telemetered cynomolgus monkey assessed as increase in mean blood pressure at 1 to 3 mg/kg, sc measured after 1 to 4 hrs by telemetry method; format: toxicity, organism-based, Macaca fascicularis; design: route subcutaneous; conditions: in vivo
[12] = biological target: T3, Muscarinic acetylcholine receptor M5 (Homo sapiens) (UniProt P08912); assay: Agonist activity at M5 receptor (unknown origin) at 3 uM by calcium mobilization assay; format: functional
T3 sequence (whole entry): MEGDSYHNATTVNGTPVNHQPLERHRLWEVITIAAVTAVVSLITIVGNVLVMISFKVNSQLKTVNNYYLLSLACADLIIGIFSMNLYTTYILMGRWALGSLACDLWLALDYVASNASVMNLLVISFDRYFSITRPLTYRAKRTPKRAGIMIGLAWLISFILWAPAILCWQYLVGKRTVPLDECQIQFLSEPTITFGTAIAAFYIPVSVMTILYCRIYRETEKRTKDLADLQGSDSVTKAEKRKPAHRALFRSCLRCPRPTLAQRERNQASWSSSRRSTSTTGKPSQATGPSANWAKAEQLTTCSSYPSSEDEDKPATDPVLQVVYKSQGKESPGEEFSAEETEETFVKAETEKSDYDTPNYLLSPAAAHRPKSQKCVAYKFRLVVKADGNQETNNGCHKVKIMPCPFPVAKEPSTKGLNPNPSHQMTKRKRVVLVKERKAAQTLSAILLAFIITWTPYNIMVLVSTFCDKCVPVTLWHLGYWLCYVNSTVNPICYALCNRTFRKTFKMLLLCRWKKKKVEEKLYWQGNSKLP

[13] = biological target: T4, Muscarinic acetylcholine receptor M2 (Homo sapiens) (UniProt P08172); assay: Agonist activity at M2 receptor (unknown origin) at 3 uM by calcium mobilization assay; format: functional
T4 sequence (whole entry): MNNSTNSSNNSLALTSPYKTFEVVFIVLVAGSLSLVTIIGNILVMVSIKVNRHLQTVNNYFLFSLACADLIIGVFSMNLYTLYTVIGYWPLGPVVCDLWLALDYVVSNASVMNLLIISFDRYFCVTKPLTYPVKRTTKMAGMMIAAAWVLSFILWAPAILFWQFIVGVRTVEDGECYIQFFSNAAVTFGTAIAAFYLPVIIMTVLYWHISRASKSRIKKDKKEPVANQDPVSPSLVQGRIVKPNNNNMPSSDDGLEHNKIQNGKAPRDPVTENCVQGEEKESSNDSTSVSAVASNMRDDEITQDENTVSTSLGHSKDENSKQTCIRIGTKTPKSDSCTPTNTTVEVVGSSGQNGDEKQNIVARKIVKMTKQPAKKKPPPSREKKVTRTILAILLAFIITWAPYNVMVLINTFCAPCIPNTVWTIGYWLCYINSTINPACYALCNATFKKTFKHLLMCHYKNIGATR

[14] = test system: Cynomolgus monkey; assay: Induction of salivation in sc dosed cynomolgus monkey; format: organism-based, Macaca fascicularis; conditions: in vivo
[15] = test system: Cynomolgus monkey; assay: Induction of vomiting in sc dosed cynomolgus monkey; format: organism-based, Macaca fascicularis; conditions: in vivo
[16] = test system: Mus musculus; assay: Induction of seizures in ddY mouse at 300 mg/kg, sc measured for 45 mins after drug injection; format: organism-based; design: dose 300 mg/kg, route subcutaneous; conditions: in vivo, 0.75 h
[17] = biological target: T1, Muscarinic acetylcholine receptor M4 (Homo sapiens); assay: Agonist activity at M4 receptor (unknown origin) at 10 uM by calcium mobilization assay; format: functional
[18] = organism: Rattus norvegicus; conditions: Sprague-Dawley, 0.1 to 1 mg/kg
[19] = biological target: T1, Muscarinic acetylcholine receptor M4 (Homo sapiens); assay: (§1) Partial agonist activity at human M4 receptor co-expressed with Galpha16 in CHO cells assessed as calcium mobilization after 60 mins by FLIPR assay; format: functional, cell-based
[20] = biological target: T5, Muscarinic acetylcholine receptor M4 (Homo sapiens, UniProt P08173); assay: as §1; format: functional, cell-based
T5 sequence (P08173 whole entry): T1 sequence (whole entry)

[21] = biological target: T1, Muscarinic acetylcholine receptor M4 (Homo sapiens); assay: Partial agonist activity at human M4 receptor co-expressed with Galpha16 in CHO cells assessed as calcium mobilization at 3 uM after 60 mins by FLIPR assay; format: functional, cell-based
[22] = biological target: T1, Muscarinic acetylcholine receptor M4 (Homo sapiens); assay: Partial agonist activity at human M4 receptor co-expressed with Galpha16 in CHO cells assessed as calcium mobilization at 30 nM after 60 mins by FLIPR assay; format: functional, cell-based
[23] = biological target: T3, Muscarinic acetylcholine receptor M5 (Homo sapiens); assay: Partial agonist activity at human M5 receptor in CHO cells assessed as calcium mobilization at 3 uM after 60 mins by FLIPR assay; format: functional, cell-based
[24] = biological target: T2, Muscarinic acetylcholine receptor M1 (Homo sapiens); assay: Partial agonist activity at human M1 receptor in CHO cells assessed as calcium mobilization at 3 uM after 60 mins by FLIPR assay; format: functional, cell-based
[25] = biological target: T4, Muscarinic acetylcholine receptor M2 (Homo sapiens); assay: Partial agonist activity at human M2 receptor co-expressed with Galpha16 in CHO cells assessed as calcium mobilization at 3 uM after 60 mins by FLIPR assay; format: functional, cell-based
[26] = biological target: Muscarinic acetylcholine receptor M3 (Homo sapiens) (UniProt P20309); assay: Partial agonist activity at human M3 receptor in CHO cells assessed as calcium mobilization at 3 uM after 60 mins by FLIPR assay; format: functional, cell-based
[27] = biological target: Voltage-gated inwardly rectifying potassium channel KCNH2 (Homo sapiens, UniProt Q12809); assay: Inhibition of human ERG assessed as decrease in tail current amplitude measured after 5 mins by whole cell patch clamp technique
Chain of Voltage-gated inwardly rectifying potassium channel KCNH2 (Q12809 whole entry): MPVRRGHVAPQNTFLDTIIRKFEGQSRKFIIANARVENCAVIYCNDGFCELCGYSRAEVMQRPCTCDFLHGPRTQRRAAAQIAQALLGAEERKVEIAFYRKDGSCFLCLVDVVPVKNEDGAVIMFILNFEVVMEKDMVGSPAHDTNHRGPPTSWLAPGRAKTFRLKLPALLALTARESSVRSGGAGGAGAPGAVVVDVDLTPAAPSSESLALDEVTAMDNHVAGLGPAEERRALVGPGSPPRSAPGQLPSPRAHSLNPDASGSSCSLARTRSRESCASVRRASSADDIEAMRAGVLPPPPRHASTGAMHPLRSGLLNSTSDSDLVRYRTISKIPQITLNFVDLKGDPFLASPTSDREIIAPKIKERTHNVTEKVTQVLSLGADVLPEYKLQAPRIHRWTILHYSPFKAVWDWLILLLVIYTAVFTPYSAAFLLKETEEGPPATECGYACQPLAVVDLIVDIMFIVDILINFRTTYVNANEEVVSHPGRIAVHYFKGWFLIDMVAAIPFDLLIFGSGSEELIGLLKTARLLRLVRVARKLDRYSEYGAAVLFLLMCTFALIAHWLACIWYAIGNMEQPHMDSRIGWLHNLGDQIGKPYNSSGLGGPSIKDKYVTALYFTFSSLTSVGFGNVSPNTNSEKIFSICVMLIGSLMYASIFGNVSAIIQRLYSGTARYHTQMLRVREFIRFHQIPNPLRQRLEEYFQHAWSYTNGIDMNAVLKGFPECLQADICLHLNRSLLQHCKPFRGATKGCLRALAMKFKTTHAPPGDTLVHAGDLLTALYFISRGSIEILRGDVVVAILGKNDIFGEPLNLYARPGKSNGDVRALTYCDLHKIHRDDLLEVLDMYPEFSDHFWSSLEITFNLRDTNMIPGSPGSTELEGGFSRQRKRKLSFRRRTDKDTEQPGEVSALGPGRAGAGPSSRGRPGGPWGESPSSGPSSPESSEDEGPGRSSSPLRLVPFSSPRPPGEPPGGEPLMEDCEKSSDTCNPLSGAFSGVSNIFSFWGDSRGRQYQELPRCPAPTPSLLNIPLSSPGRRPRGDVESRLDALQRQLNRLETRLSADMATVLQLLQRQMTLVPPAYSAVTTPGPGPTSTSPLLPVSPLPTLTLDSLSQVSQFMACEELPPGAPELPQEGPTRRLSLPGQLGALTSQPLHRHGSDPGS

`CCCCCCOc1nsnc1C1=CCCN(C)C1.O=C(O)C(O)C(O)C(=O)O` [XANOMELINE TARTRATE] was tested, and the Activity [1] was “Toxic”, the Activity [2] was “Toxic” and the Activity [3] was 83%. For the same compound, the Activity [4] was “Toxic”, the Activity [5] was “Toxic” and the Activity [6] was “Toxic”. For the same compound, the Activity [7] was 85%, the Activity [8] was “Toxic” and the Activity [9] was “Toxic”. For the same compound, the Activity [10] was 145%, the Activity [11] was “Toxic” and the Activity [12] was 33%. For the same compound, the Activity [13] was 34%, the Activity [14] was “Toxic” and the Activity [15] was “Toxic”.

For `CC[C@@H]1C(=O)OC[C@@H]1Cc1cncn1C` [PILOCARPINE], the Activity [16] was “Toxic”.

`CC(C)=CCN1CCC(N2C(=O)C(C)(C)c3ccccc32)CC1` was tested, and the Activity [3] was 14% and the Activity [17] was 33%.

`CO/N=C(\C#N)[C@H]1CN2CCC1CC2` [SABCOMELINE] was tested, and the inhibition [18] was “Active”, the Intrinsic activity [19] was 28% and the pEC50 [20] was 8.24.

Compound `CCOC(=O)N1CCC(CN2CCC(N3C(=O)Cc4ccccc43)CC2)CC1` has an Activity [3] of 33%, an Activity [7] of 2% and an Activity [10] of 88%. It also gave an Activity [12] of 6% and an Activity [13] of 6%.

`CCOC(=O)N1CCC(CN2CC[C@H](N3C(=O)Cc4ccccc43)C2)(OC)CC1` gave an Intrinsic activity [21] of 13%.

Compound `CCOC(=O)N1CCC(CN2CC[C@@H](N3C(=O)Cc4ccccc43)C2)CC1` has an Activity [3] of 86%, an Activity [7] of 8% and an Activity [10] of 88%. It also gave an Activity [12] of 4% and an Activity [13] of 27%.

Work on `CCOC(=O)N1CCC(CN2CC[C@H](N3C(=O)Cc4ccccc43)C2)CC1` yielded an Intrinsic activity [22] of 79%, an Activity [23] of 5% and an Activity [3] of 124%. For the same compound, the Activity [7] was 7%, the Activity [24] was 83% and the Activity [10] was 83%. The Activity [25] was 30%, the Activity [12] was 5% and the Activity [13] was 30%. It also gave an Activity [26] of 7%.

Compound `CCOC(=O)N1CCC(CN2CCCC(N3C(=O)Cc4ccccc43)CC2)CC1` (stereo unspecified) has an Activity [3] of 4%, an Activity [7] of 2% and an Activity [10] of 7%. For the same compound, the Activity [12] was 3% and the Activity [13] was 4%.

In the case of `CCOC(=O)N1CCC(C)(CN2CC[C@H](N3C(=O)Cc4ccccc43)C2)CC1`, the Activity [23] was 4%, the Activity [24] was 49% and the Intrinsic activity [19] was 65%. The pEC50 [20] was 7.82, the pIC50 [27] was 5.46 and the Activity [25] was 3%. For the same compound, the Activity [26] was 2%.

Work on `CCOC(=O)N1CCC(CN2CC(N3C(=O)Cc4ccccc43)C2)CC1` yielded an Activity [3] of 46%, an Activity [7] of 3% and an Activity [10] of 65%. The Activity [12] was 3% and the Activity [13] was 2%.

For `CCOC(=O)N1CCC(O)(CN2CC[C@H](N3C(=O)Cc4ccccc43)C2)CC1`, the Activity [23] was 3%, the Activity [24] was 57% and the Intrinsic activity [19] was 45%. For the same compound, the pEC50 [20] was 6.49, the pIC50 [27] was 5.41 and the Activity [25] was 12%. For the same compound, the Activity [26] was 31%.
